Assay results reported in PMC8782015, “Coumarin Derivatives Exert Anti-Lung Cancer Activity by Inhibition of Epithelial–Mesenchymal Transition and Migration in A549 Cells” (Pharmaceuticals, 2022).

Tests used:
A549 cells [1] = conditions: cited from earlier work
A549 cells [2] = assay: MTT cell viability assay on A549 cells; format: cell-based, human; conditions: 24 h; for cytotoxicity (A549 cells viability, in words): single concentration 12 µM
Procedure: All the synthetic coumarins (7, 8a–f, 9a–g, 10, 11, 12a–c, 13a–c, 14–17) were first screened for their in vitro cytotoxic activity at a single concentration (12 µM) against NSCLC cell line (human lung adenocarcinoma A549) for 24 h, using the well-established 3-(4,5-dimethylthiazol-2-yl)-2,5-diphenyltetrazolium bromide (MTT) assay.
The effect of coumarin derivatives on cell viability was evaluated by the MTT assay at a single dose according to the NCI testing protocol or at different concentrations for IC50 determination. Coumarin derivatives were dissolved in dimethyl sulfoxide (DMSO) and then diluted with DMEM. Briefly, cells were plated in 96-well plates (2 × 10^4/well) and each coumarin derivative at 12 µM was added to the culture medium, and the cell cultures were continued for 24 h. Cisplatin (2.6 µM) was used as a reference drug. Thereafter, the medium was replaced with fresh DMEM containing 5 mg/mL MTT. Following an incubation period (4 h) in a humidified CO2 incubator at 37 °C and 5% CO2, the supernatant was removed, and dimethyl sulfoxide solution (DMSO, […]) was added to each cultured plate. After incubation at room temperature for 15 min, the absorbance of the solubilized MTT formazan product was spectrophotometrically measured at 540 nm. Three individual wells were assayed for each treatment, and the percentage viability relative to the control sample was determined as (absorbance of treated cells/absorbance of untreated cells) × 100%. Only the compound that reduced the viability by more than half the value of the control cells were screened in a range of concentration (10^−8 to 10^−3 M) with the A549, H2170, and NHI-3T3 cell lines. The concentration of 9f compound that reduced the viable cell number by 50% (CC50) was determined using a non-linear regression approach, and the mean value of CC50 for each cell type was calculated from triplicate.
Figure 1 Effect of synthetic coumarin derivatives on cell viability. The viability of A549 cells was determined using the MTT assay after exposure at a single concentration (12 µM) of the compounds or cisplatin (2.6 µM) for 24 h. The percentage of inhibition was calculated considering the cells treated with medium (DMEM), which was considered as 100% of cell viability (dotted line). Bars represent the mean ± S.D. from three independent experiments.
1.1. In vitro cytotoxicity assay of 9f compound on A549, H2170 and NIH3T3 cells
In order to determine the cytotoxic effect of 9f compound, the tumor cell lines A549 and H2170, and non-tumor cell line NHI-3T3 (1×10^5 per well) were seeded in the presence of the 9f compound concentration (1×10-3 to 1×10^-8 M) in 96-well microliter culture plate in a humidified CO2 (5%) incubator at 37 °C for 24h. Cell viabilities were measured using MTT assay as described in Materials and Methods Section. Three individual wells were assayed for each treatment and the percentage viability relative to the control sample was determined as (absorbance of treated cells/absorbance of untreated cells)×100%. A nonlinear regression analysis calculated using Prism 7.0 software (Graph- […]
25.8 ± 1.7 µM to NHI-3T3 cells (Figure S1).
Figure S1. Cytotoxicity assay (CC50) of increasing concentration of 9f compound on tumor cell lines (A549 and H2170) and non-tumor cell line (NHI-3T3) after 24 hours using MTT assay. All data were reported as the mean ± S.D. CC50 (M) values were calculated from the dose response curve using Prim 7 software.
(1 picture or pasted object on this page, not shown here)

[3] = MTT cell viability assay (CC50) on NIH-3T3 cells; format: cell-based; conditions: mouse, NIH-3T3 fibroblast cells (non-tumour), NIH-3T3 non-cancer cells, mean ± S.D., read-out: CC50 (concentration that reduces the viable cell number by 50%)
Text: (§1) Among these two compounds, 9f was the most promising, reducing the A549 cells viability to less than 20%. […] Distinct explanations might be used to sustain this fact, including biochemical and metabolic changes between cell lines. While normal cells follow a set of organized metabolic programs, cancer cells show intrinsic or acquired resistance to apoptosis and also a metabolic reprogramming in order to meet the increased energy demands.
A549, H2170, and normal mouse fibroblast (NIH-3T3) cell lines were obtained from the Rio de Janeiro Cell Bank (BCRJ). […]
(§2) The effect of coumarin derivatives on cell viability was evaluated by the MTT assay at a single dose according to the NCI testing protocol or at different concentrations for IC50 determination. […] After incubation at room temperature for 15 min, the absorbance of the solubilized MTT formazan product was spectrophotometrically measured at 540 nm. Three individual wells were assayed for each treatment, and the percentage viability relative to the control sample was determined as (absorbance of treated cells/absorbance of untreated cells) × 100%. […]
Figure S1. […] All data were reported as the mean ± S.D. CC50 (M) values were calculated from the dose response curve using Prim 7 software. […]

A549 cells [4] = assay: In vitro scratch wound healing assay; format: cell-based, human; conditions: 7 µM, 24 h, IL-1β-stimulated A549 cells
Procedure: To evaluate the effect of 9f on epithelial motility, we performed the scratch assay as described by Cardoso et al.. Cells were maintained in 24-well plates until they reached 90% confluency. Thereafter, a vertical stripe on the cell monolayer was made using a sterile pipette (200 μL) tip. The wells were washed with PBS to remove dead cells and debris, and then, 9f was added at a concentration of 7 µM. As a control, the cells were treated with cell culture medium. Photographs were captured by a digital camera connected to an inverted microscope (Olympus IX70) at 0 and 24 h after scratch. The migration gap area of the cells was measured by ImageJ software (https://imagej.nih.gov/ij/; accessed on 24 November 2020, Center for Information Technology, National Institute of Health, Bethesda, […], USA). Each measurement was repeated three times.
Figure 4 The effect of 9f on the migration of A549 cells assayed by the wound-healing assay. Cells were treated with 9f at 7 µM, and images were captured to calculate the scratch closure. In (A), representative photomicrography images showing the cell migration toward the cell-free area after treatment with DMEM (control) or 9f and after 24 h. […] Values represent mean ± S.D. from three independent experiments. (+++) p < 0.001 compared with respective DMEM-treated cells and (***) p < 0.001 compared with IL-1β-stimulated cell vehicle-treated cells.

vimentin in A549 cells = assay: Vimentin expression by immunofluorescence and flow cytometry; format: cell-based, human; conditions: 7 µM, 24 h
Procedure: (§3) For induction of the EMT process, A549 cells (1 × 10^5 per well) were seeded in 24-well culture plates and treated with 1 ng/mL IL-1β (Peprotech, Rocky Hill, NJ, USA) for 24 h. In the unstimulated cells, DMEM medium was added. Then, the morphological alteration of cells was observed under a microscope. This protocol for EMT induction is as reported in the previous literature. To evaluate the effects of coumarin derivative with respect to EMT induced by IL-1β, cells were pretreated with compound 9f at 7 µM, being this treatment also maintained during stimulation with IL-1β for 24 h.
In another set of experiments, the analysis for vimentin, a well-recognized marker for its selective expression and specific role in the mesenchymal state, was performed. […] Stained cells were analyzed by a flow cytometer (FACSCanto II, Becton Dickinson, San Jose, CA, USA) accompanied with the BD FACSDIVA™ software for data analysis. The cell-associated fluorescence of 5000 cells per sample was measured as mean fluorescence intensity (MFI) in the FL1 channel. The MFI values were corrected for unspecific staining by subtracting the fluorescence of cells unstained (negative control).
Figure 3 Compound 9f downregulates the expression of mesenchymal cell marker vimentin in IL-1β-induced EMT. […] The mesenchymal markers vimentin was detected by immunofluorescence. […] Magnification ×400 for fluorescence microscope. […]

[5] = system: IL-1β-stimulated A549 cells; assay: IL-1β-induced EMT: cell morphology and F-actin (FITC-phalloidin) staining; format: cell-based, human; conditions: 7 µM, 1 ng/mL IL-1β, 24 h
Procedure: as §3
After 24 h, cells were fixed for 15 min at 4 °C with 4% paraformaldehyde in PBS. […] Cell morphology was determined using an inverted epifluorescence microscope (Nikon Eclipse 50i). Fluorescence quantification was done using ImageJ 1.47 software (NIH, Bethesda, MD, USA). Images were analyzed through the “Measure” menu, which allowed analyzing the fluorescence intensity signal per cell from original photomicrographs.
Figure 2 Compound 9f inhibited IL-1β-induced EMT in vitro. […] Cells were photographed using phase-contrast microscopy (A–D) or fluorescence microscopy (E–H). […] Actin (green) was detected via immunofluorescence in formaldehyde-fixed cells with FITC-conjugated phalloidin (1:100). […] Magnification ×100 (insert, magnification ×200) for phase-contrast microscope and ×400 for fluorescence microscope.

H2170 cells = assay: MTT cell viability assay (CC50) on H2170 cells; format: cell-based; conditions: Homo sapiens, NCI-H2170, 24 h, mean ± S.D., read-out: CC50 (concentration that reduces the viable cell number by 50%)
Text: as §1, §2
In order to determine the cytotoxic effect of 9f compound, the tumor cell lines A549 and H2170, and non-tumor cell line NHI-3T3 (1×10^5 per well) were seeded in the presence of the 9f compound concentration (1×10-3 to 1×10^-8 M) in 96-well microliter culture plate in a humidified CO2 (5%) incubator at 37 °C for 24h. Cell viabilities were measured using MTT assay as described in Materials and Methods Section. […]

CC(=O)Oc1ccc2cc(-c3ccc(S(C)(=O)=O)cc3)c(=O)oc2c1OC(C)=O [8-(acetyloxy)-3-(4-methanesulfonylphenyl)-2-oxo-2H-chromen-7-yl acetate]
IC50 (A549 cells [1]): 24.2 µM

COc1ccccc1-c1ccc2ccc(=O)oc2c1 [Compound 8b]
cytotoxicity (A549 cells viability, in words) (A549 cells [2]): little or no cytotoxicity

COc1ccccc1-c1ccc2oc(=O)ccc2c1 [Compound 9c]
cytotoxicity (A549 cells viability, in words) (A549 cells [2]): little or no cytotoxicity

O=c1ccc2cc(-c3ccc(Cl)c(Cl)c3)ccc2o1 [Compound 9f]
CC50 at 24 h [3]: 25.8 µM
migration (wound closure) (A549 cells [4]): significantly reduced
CC50 (A549 cells [2]; Homo sapiens, A549 cells, mean ± S.D., read-out: CC50 (concentration that reduces the viable cell number by 50%)): 7.1 ± 0.8 µM
expression of mesenchymal marker vimentin (vimentin in A549 cells; IL-1β-stimulated (1 ng/mL) A549 cells): significantly diminished
levels of vimentin expression (vimentin in A549 cells; cells unstimulated with IL-1β): did not change
actin cytoskeleton reorganization ([5]; FITC-labeled phalloidin): attenuated the changes in the actin cytoskeleton reorganization
morphological changes (mesenchymal characteristics) induced by IL-1β ([5]; phase-contrast microscopy): impairment in changes in its mesenchymal characteristics induced by IL-1β
CC50 (H2170 cells): 3.3 ± 0.5 µM

O=c1ccc2ccc(C#CCO)cc2o1 [Compound 12c]
cytotoxicity (A549 cells viability, in words) (A549 cells [2]): little or no cytotoxicity

O=c1ccc2cc(C#CCCCc3ccccc3)ccc2o1 [Compound 13b]
cytotoxicity (A549 cells viability, in words) (A549 cells [2]): little or no cytotoxicity

O=c1ccc2cc(Cc3ccccc3)ccc2o1 [Compound 14]
cytotoxicity (A549 cells viability, in words) (A549 cells [2]): little or no cytotoxicity

O=c1ccc2ccc(Cc3ccccc3)cc2o1 [Compound 15]
cytotoxicity (A549 cells viability, in words) (A549 cells [2]): little or no cytotoxicity

O=c1ccc2ccc(CCc3ccccc3)cc2o1 [Compound 16]
cytotoxicity (A549 cells viability, in words) (A549 cells [2]): little or no cytotoxicity

CC(C)=CCC/C(C)=C/CC/C(C)=C/COc1ccc2ccc(=O)oc2c1 [umbelliprenin]
IC50 (A549 cells [1]): 52 ± 1.97 µM
